The test system of one data set is sciatic nerves. In words: In vivo nerve labeling with fluorescently labeled peptides (nerve versus adjacent non-nerve tissue). Also on record: species or system mice. Conditions: for Nerve contrast: derivatives of peptide SEQ ID NO: 4; for nerve to muscle contrast: FAM-labeled peptides intravenously, living mice, after wash-out. As for the experimental part: To test the nerve binding affinity of each of the isolated peptide sequences in vivo, carboxyfluorescein (FAM)-labeled peptides were injected intravenously into living mice. Following a wash-out period, the contrast between nerve and muscle binding of the labeled peptides was evaluated.
Wild-type albino C57BL6 (Jackson Laboratory) or SKH1 (Charles River Laboratories) mice were treated intravenously with 150 nmoles of fluorescently labeled SEQ ID NO:4 via tail vein injection. Following a 2-3 hour wash-out period for SEQ ID NO:25 or 5-6 hours for SEQ ID NO:31, mice were anesthetized with ketamine and midazolam (80 mg/kg intraperitoneally), a skin incision was made over the dorsal surface of the hind, legs and the sciatic nerves exposed bilaterally. […] Nerves and adjacent non-nerve tissue was delineated with Image J and relative fluorescence was measured. Following background subtraction using dark current measurements and measurements of a standard, the ratios of peptide binding to nerve versus adjacent non-nerve tissue were calculated.

Another data set deals with dissected nerve tissue. In words: In vitro nerve binding: dissected nerve tissue incubated with peptide. Also on record: species or system mice. Conditions: 100 nM peptide, one hour incubation.
The nature of data set [1]: Peptide biodistribution and metabolism (organ fluorescence, LC-MS and MALDI of urine). It is filed as in vivo, mice. As for the experimental part:
(§1) To evaluate the biodistribution of the peptide following systemic administration, organs were harvested from mice treated with SEQ ID NO:4 and fluorescence uptake was evaluated. […] To evaluate the metabolism of the peptide as it passed through the renal system, liquid chromatography-mass spectrometry (LC-MS, Agilent) tracing was used to compare urine obtained from mice injected with SEQ ID NO:25 or SEQ ID NO:31 intravenously versus urine from normal mice spiked with the native SEQ ID NO:25 or SEQ ID NO:31. […] Next, matrix-assisted. laser desorption/ionization (MALDI) was used to evaluate the nature of the modification to the peptide as it was metabolized.
as §1, with “NO:25 and” for “NO:25 or”, “ID NO:3” for “ID NO:31”, “ID NO:25.” for “ID NO:25 or SEQ ID NO:31.”, “Next, matrix-assisted” for “Next, matrix-assisted.”

The test system of the next data set is sciatic nerve. Kind of data set: Histology: localization of binding in nerves of thy1-YFP transgenic mice. It is filed as in vivo. The source says:
To evaluate the localization of SEQ ID NO:4 binding in nerves, we treated thy1-YFP transgenic mice whose axons are genetically encoded with YFP under a neuron specific promoter (Feng et al, Imaging neuronal subsets in transgenic mice expressing multiple spectral variants of GFP. Neuron, 2000) with SEQ ID NO:31. […] These deeper nerve structures were not easily seen either with brightfield (FIG. 5A, insert) or YFP (FIG. 5B, insert) imaging. To evaluate the localization of SEQ ID NO:4 binding on a cellular level, we imaged cryosections (3-5 μm) of nerves and attached muscles from thy1-YFP animals treated with SEQ ID NO:31.

Entries after “also recorded” stand apart in the source; their conditions may differ. No end group written: not given here. heptamethinecyanine derivative = not defined here; Cy5 = Cy5 cyanine fluorescent dye label; 5,6FAM = 5(6)-carboxyfluorescein label

Procedure for dissected nerve tissue: To test the nerve binding affinity of each of the isolated peptide sequences in vitro, dissected nerve tissue was removed from mice and incubated for one hour with 100 nM of each peptide, including a control peptide made up of amino acids that were contained within the various phages selected and sequenced, but in a mixed-up order and designed without repeating any single amino acid except for glycine (which was added to the C-terminus as a flexible linker).

Consider “acetyl- SHSNTQTLAKAPEHTG-(L-cys)-(heptamethinecyanine derivative) (Ac-SHSNTQTLAKAPEHTGC(heptamethinecyanine derivative); not fully specified; reading uncertain) [SEQ ID NO: 52]”, for which the Nerve contrast result with sciatic nerves is “Low”.

Turning to “KSLSRHDHIHHH (peptide that specifically binds to a neuron, nerve, or component of either) [SEQ ID NO:3]”, the “uptake/binding to dissected nerve tissue compared to no peptide or control peptide” value with dissected nerve tissue was “two-fold increase over control to no difference from control”. Also, in the data set with sciatic nerves, the “nerve to muscle contrast” value is recorded as “exhibited nerve to muscle contrast, although at a lower level than that of SEQ ID NO:4”.

As to “acetyl- SHSNTQTLAKAPEHTG(L-cys)(5,6FAM)-amide (Ac-SHSNTQTLAKAPEHTGC(5,6FAM)-NH2; not fully specified) [SEQ ID NO: 46]”, the Nerve contrast entry in the data set with sciatic nerves is “Medium/High”.

As to “acetyl- SHSNTQTLAKAPEHTG-(L-cys)-(indocyanine green derivative) [SEQ ID NO: 51]”, the Nerve contrast entry in the data set on sciatic nerves was “Low”.

“AHHNSWKAKHHS (peptide that specifically binds to a neuron, nerve, or component of either) [SEQ ID NO:1]”: the “uptake/binding to dissected nerve tissue compared to no peptide or control peptide” value in the data set with dissected nerve tissue was “two-fold increase over control to no difference from control”. For the same substance, in the data set on sciatic nerves, the “nerve to muscle contrast” value is “little significant nerve-to muscle contrast”.

With “acetyl- SHSNTQTLAKAPEHTG-(L-cys)-(Texas Red)-amide (Ac-SHSNTQTLAKAPEHTGC(Texas Red)-NH2) [SEQ ID NO: 50]”, the Nerve contrast entry with sciatic nerves was “Medium”.

As to “acetyl- SHSNTQTLAKAPEHTG-(D-cys)-(5,6FAM)-amide (Ac-SHSNTQTLAKAPEHTG; not fully specified (C-terminus); also: 5,6FAM on C-terminal D-Cys, attachment site not given here)”, the Nerve contrast result in the data set with sciatic nerves is “Medium”.

In the case of “acetyl- SHSNTQTLAKAPEHTG-(L-cys)-(IR800CW) (Ac-SHSNTQTLAKAPEHTGC(IR800CW); not fully specified) [SEQ ID NO: 48]”, the Nerve contrast result in the data set with sciatic nerves is given as “Low”.

Consider “Free amine- SHSNTQTLAKAPEHTG-(L-cys)-(5,6FAM)-amide (H-SHSNTQTLAKAPEHTGC(5,6FAM)-NH2; not fully specified) [SEQ ID NO: 47]”, for which the Nerve contrast entry with sciatic nerves is listed as “Medium/High”.

“acetyl- SHSNTQTLAKAPEHTG-(L-cys-)-(TAMRA)-amide (Ac-SHSNTQTLAKAPEHTGC(TAMRA)-NH2) [SEQ ID NO: 49]”: the Nerve contrast entry in the data set with sciatic nerves is recorded as “Medium”.

Regarding “ACETYL-SHSNTQTLAKAPEHTG-(L-cys)-(Cy5)-amide (Ac-SHSNTQTLAKAPEHTGC(Cy5)-NH2; also: Cy5 on C-terminal Cys, attachment site not given here) [SEQ ID NO:31]”, in the data set with sciatic nerves, the Nerve contrast result was “Medium/High”. Also, the “native peptide detectable in urine of intravenously injected mice” value in data set [1] (LC-MS) was “none”. The “only fluorescently labeled entity identified in urine” value in data set [1] (MALDI) is given as “cysteine-Cy5”. In the data set with sciatic nerve (Cy5 fluorescence versus YFP and brightfield), the “labeling of nerves genetically encoded with YFP” value is “precisely labels nerves”. In addition, the “localization of labeling within nerve” value with sciatic nerve (cryosections of nerves) was “most localized to the epineurium of the nerves with some labeling of the perineurium and endoneurium; also recorded: labeling of epineurium, perineurium and endoneurium”. Besides, the “tissue penetration compared to imaging in the visible range” value in the data set with sciatic nerve (mouse, in vivo) is “deeper tissue penetration”.

For the substance “DFTKTSPLGIH (peptide that specifically binds to a neuron, nerve, or component of either) [SEQ ID NO:5]”, the “uptake/binding to dissected nerve tissue compared to no peptide or control peptide” value in the data set on dissected nerve tissue is “two-fold increase over control to no difference from control”. Further, the “nerve to muscle contrast” value in the data set with sciatic nerves was “exhibited nerve to muscle contrast, although at a lower level than that of SEQ ID NO:4”.

For the substance “acetyl- SHSNTQTLAKAPEHTG-(D-cys)-(cy5)-amide (Ac-SHSNTQTLAKAPEHTG; not fully specified (C-terminus))”, in the data set on sciatic nerves, the Nerve contrast entry is recorded as “Medium”.

For the origin of these results see patent publication US8685372B2, “Peptides and aptamers for targeting of neuron or nerves” (The Regents of the University of California, priority 2009, dated 2014).
